From patent publication US20240254121A1, “ALKYLAMIDE SUBSTITUTED, ANNULATED IMIDAZOLES AND USE THEREOF AS INSECTICIDES” (Bayer Aktiengesellschaft, priority 2021, published 2024)

What was measured:
Assay type in all cases: in vivo
[1] = tested on: adult flies Musca domestica strain WHO-N; assay: Musca domestica test (MUSCDO surface treatment & contact assay); details: 24 hours after contact, read-out: efficacy (mortality); for mortality at 20 mg/m2: surface concentration 20 mg/m^2, 30 minutes exposure; for mortality at 4 mg/m2: surface concentration 4 mg/m^2, 30 minutes exposure
Description: Musca domestica Test (MUSCDO Surface Treatment & Contact Assay) • Solvent: Aceton+2000 ppm rapeseed oil methyl ester (RME)
(§1) In order to produce a sufficient, active ingredient containing solution it is necessary to solve the test compound in the solvent-mix (acetone at 2 mg/ml/RME 2000 ppm). This solution is pipetted onto a glazed tile and after evaporation of the acetone, adult flies of the species Musca domestica strain WHO-N are placed onto the dried surface. The exposure time is 30 minutes. Mortality in percent (%) is determined 24 hours after contact of the insects to the treated surface. 100% mortality means that all tested insects are dead, whereas 0% means that no insect died.

[2] = tested on: fall armyworm larvae (Spodoptera frugiperda); assay: Spodoptera frugiperda spray test; details: 168 h, maize leaf sections, after 7 days
Description: Spodoptera frugiperda—Spray Test • Solvent: 78.0 parts by weight acetone • 1.5 parts by weight dimethylformamide • Emulsifier: alkylarylpolyglycol ether
(§2) To produce a suitable preparation of active compound, 1 part by weight of active compound is mixed with the stated amount of solvents and is diluted with water, containing an emulsifier concentration of 1000 ppm, to the desired concentration. Further test concentrations are prepared by dilution with emulsifier containing water.
Maize (Zea mays) leaf sections are sprayed with a preparation of the active ingredient of the desired concentration. Once dry, the leaf sections are infested with fall armyworm larvae (Spodoptera frugiperda).
After 7 days mortality in % is determined. 100% means all caterpillars have been killed and 0% means none of the caterpillars have been killed.

[3] = tested on: adult engorged female ticks (Rhipicephalus microplus); assay: Rhipicephalus (Boophilus) microplus injection test; details: 4 μg/tick, egg deposition after 7 days
Description: Rhipicephalus (Boophilus) Microplus—Injection Test
• Solvent: Dimethyl Sulfoxide
To produce a suitable preparation of active compound, 10 mg of active compound are dissolved in 0.5 mL solvent, and the concentrate is diluted with solvent to the desired concentration.
Five adult engorged female ticks (Rhipicephalus microplus) are injected with 1 μL compound solution into the abdomen. The ticks are transferred into replica plates and incubated in a climate chamber.
After 7 days egg deposition of fertile eggs is monitored. Eggs where fertility is not visible are stored in a climate chamber till hatching after about 42 days. An efficacy of 100% means all eggs are infertile; 0% means all eggs are fertile.

[4] = tested on: cattle tick larvae (Rhipicephalus microplus); assay: Rhipicephalus (Boophilus) microplus in-vitro contact test, larval cattle tick (strain Parkhurst, resistant against synthetic pyrethroids); details: after 48 hours, read-out: efficacy (larvae dead or moribund); for pest or weed control at 1 µg/cm2, 100 g/ha: 1 μg/cm^2 (=100 g/ha)
Description: Rhipicephalus (Boophilus) Microplus—In-Vitro Contact Tests Larval Cattle Tick (Strain Parkhurst, Resistant Against Synthetic Pyrethroids)
(§3) 9 mg compound is solved in 1 mL acetone and diluted with acetone to the desired concentration. 250 μL of the test solution is filled in 25 mL glass test tubes and homogeneously distributed on the inner walls by rotation and tilting on a shaking device (2 h at 30 rpm). With a compound concentration of 900 ppm, an inner surface of 44.7 cm^2 and a homogeneous distribution, a dose of 5 μg/cm^2 is achieved.
After the solvent has evaporated, each test tube is filled with 20-50 cattle tick larvae (Rhipicephalus microplus), closed with a perforated lid and incubated in a horizontal position at 85% relative humidity and 27° C. in an incubator. After 48 hours efficacy is determined. The larvae are patted on the ground of the tubes and negative geotactic behavior is recorded.
An efficacy of 100% means all larvae are dead or moribund; 0% means no larvae are dead or moribund.

[5] = tested on: adult mosquitoes Aedes aegypti strain MONHEIM; assay: Aedes aegypti test (AEDSAE surface treatment & contact assay); details: 24 hours after contact, read-out: efficacy (mortality); for mortality at 20 mg/m2: surface concentration 20 mg/m^2, 30 minutes exposure; for mortality at 4 mg/m2: surface concentration 4 mg/m^2, 30 minutes exposure
Description: Aedes aegypti Test (AEDSAE Surface Treatment & Contact Assay) • Solvent: Aceton+2000 ppm rapeseed oil methyl ester (RME)
as §1, with “mosquitoes” for “flies”, “Aedes aegypti” for “Musca domestica”, “MONHEIM” for “WHO-N”

[6] = tested on: cotton aphid (Aphis gossypii); assay: Aphis gossypii oral test; details: 120 h, after 5 days
Description: Aphis gossypii—Oral Test • Solvent: 100 Parts by Weight Acetone
(§4) To produce a suitable preparation of active compound, 1 part by weight of active compound is mixed with the stated amount of solvent, and the concentrate is diluted with water to the desired concentration.
(§5) 50 μL compound solution is filled in microtiter plates and 150 μL IPL41 insect medium (33%+15% sugar) is added to obtain a total volume of 200 μL per well. Afterwards the plates are sealed with parafilm through which a mixed population of the cotton aphid (Aphis gossypii) can suck on the compound preparation.
(§6) After 5 days mortality in % is determined. 100% means all aphids have been killed and 0% means none of the aphids have been killed.

[7] = tested on: green peach aphid (Myzus persicae); assay: Myzus persicae oral test; details: 120 h, after 5 days
Description: Myzus persicae—Oral Test • Solvent: 100 parts by weight acetone
as §4
as §5, with “green peach” for “cotton”, “(Myzus persicae)” for “(Aphis gossypii)”
as §6

[8] = tested on: brown planthopper (Nilaparvata lugens); assay: Nilaparvata lugens spray test; details: 96 h, rice plants, after 4 days
Description: Nilaparvata lugens—Spray Test • Solvent: 78.0 parts by weight of acetone • 1.5 parts by weight of dimethylformamide • Emulsifier: alkylarylpolyglycol ether
as §2
Rice plants (Oryza sativa) are sprayed with a preparation of the active ingredient of the desired concentration and the plants are infested with the brown planthopper (Nilaparvata lugens).
After 4 days mortality in % is determined. 100% means all planthoppers have been killed and 0% means none of the planthoppers have been killed.

[9] = tested on: larvae of the southern green stink bug (Nezara viridula); assay: Nezara viridula spray test; details: 96 h, barley plants, after 4 days
Description: Nezara viridula—Spray Test • Solvent: 78.0 parts by weight of acetone • 1.5 parts by weight of dimethylformamide • Emulsifier: alkylarylpolyglycol ether
as §2, with “solvent,” for “solvents”, “and the concentrate” for “and”
Barley plants (Hordeum vulgare) are sprayed with a test solution containing the desired concentration of the active ingredient and are infested with larvae of the southern green stink bug (Nezara viridula).
After 4 days mortality in % is determined. 100% means all the stink bugs have been killed; 0% means none of the stink bugs have been killed.

[10] = tested on: larvae of the banded cucumber beetle (Diabrotica balteata); assay: Diabrotica balteata spray test; details: 168 h, 100 g/ha (=32 μg/well), wheat seeds, after 7 days, read-out: efficacy (seedling growth)
Description: Diabrotica Balteata—Spray Test
• Solvent: 78.0 Parts by Weight of Acetone • 1.5 parts by weight of dimethylformamide • Emulsifier: Alkylarylpolyglycol Ether
as §2, with “solvent,” for “solvents”, “and the concentrate” for “and”
Soaked wheat seeds (Triticum aestivum) are placed in a multiple well plate filled with agar and some water and are incubated for 1 day to germinate (5 seeds per well). The germinated wheat seeds are sprayed with a test solution containing the desired concentration of the active ingredient. Afterwards each unit is infected with 10-20 larvae of the banded cucumber beetle (Diabrotica balteata).
After 7 days efficacy in % is determined. 100% means all the seedlings have grown up like in the untreated, uninfected control; 0% means none of the seedlings have grown.

[11] = tested on: green peach aphid (Myzus persicae); assay: Myzus persicae spray test; details: foliar, 120 h, Chinese cabbage leaf disks, after 5 days
Description: Myzus persicae—Spray Test • Solvent: 78.0 parts by weight acetone • 1.5 parts by weight dimethylformamide • Emulsifier: alkylarylpolyglycol ether
as §2
Chinese cabbage (Brassica pekinensis) leaf disks infected with all instars of the green peach aphid (Myzus persicae), are sprayed with a preparation of the active ingredient of the desired concentration.
as §6

[12] = tested on: adult brown dog ticks (Rhipicephalus sanguineus); assay: Rhipicephalus sanguineus in-vitro contact test with adult brown dog ticks; details: 1 μg/cm^2 (=100 g/ha), after 48 hours
Description: Rhipicephalus sanguineus—In-Vitro Contact Tests with Adult Brown Dog Ticks
as §3
After the solvent has evaporated, each test tube is filled with 5-10 adult brown dog ticks (Rhipicephalus sanguineus), closed with a perforated lid and incubated in a lying position at room temperature and relative humidity. After 48 hours efficacy is determined. The ticks are patted on the ground of the tubes and are incubated on a heating plate at 45-50° C. for at most 5 minutes. Immotile or uncoordinated moving ticks, which are not able to escape the heat by climbing upwards, are marked as dead or moribund.
An efficacy of 100% means all ticks are dead or moribund; 0% means no ticks are dead or moribund.

[13] = tested on: adult mosquitoes Culex quinquefasciatus strain P00; assay: Culex quinquefasciatus test (CULXFA surface treatment & contact assay); details: surface concentration 20 mg/m^2, 30 minutes exposure, 24 hours after contact, read-out: efficacy (mortality)
Description: Culex quinquefasciatus Test (CULXFA Surface Treatment & Contact Assay) • Solvent: Aceton+2000 ppm rapeseed oil methyl ester (RME)
as §1, with “2,000” for “2000”, “mosquitoes” for “flies”, “Culex quinquefasciatus” for “Musca domestica”, “P00” for “WHO-N”

Row | Compound | mortality at 20 mg/m2 [1] | mortality at 100 g/ha [2] | pest or weed control at 1 µg/cm2, 100 g/ha [4] | mortality at 20 mg/m2 [5] | mortality at 500 g/ha [8] | mortality at 4 mg/m2 [5] | pest or weed control at 32 µg/disc, 100 g/ha [10] | mortality at 100 g/ha [11] | efficacy (ticks dead or moribund) [12] | other results
1 | C[C@H](NC(=O)c1cc(OC(F)(F)F)cc(C2CC2)c1)c1nc2cccnc2n1-c1ccc(C#N)cn1 [Example I-2] | 80 to 100% | 100% | 100% | 80 to 100% | – | – | – | – | – | efficacy (infertile eggs) [3]: 100%; pest or weed control at 5 µg/cm2, 500 g/ha ([4]; 5 μg/cm^2 (=500 g/ha)): 100%
2 | C[C@H](NC(=O)c1cc(OC(F)(F)F)cc(S(C)(=O)=O)c1)c1nc2cccnc2n1-c1ccc(C#N)cn1 [Example I-4] | – | 100% | – | – | 90% | 80 to 100% | 100% | – | – | mortality at 100 ppm [6]: 100%; mortality at 20 ppm [7]: 100%; mortality at 500 g/ha [9]: 100%
3 | C[C@H](NC(=O)c1cc(C#N)cc(C2(C#N)CC2)c1)c1nc2cccnc2n1-c1ccc(C#N)cn1 [Example I-6] | – | 100% | 90% | – | – | 80 to 100% | – | 90% | – | –
4 | CC(NC(=O)c1cc(C(F)(F)F)cc(C(F)(F)F)c1)c1nc2cccnc2n1-c1ccc(Cl)cn1 (stereo not drawn) [Example I-8] | 80 to 100% | 100% | 100% | 80 to 100% | – | – | 100% | – | 80% | –
5 | CC(NC(=O)c1cc(OC(F)(F)F)cc(OC(F)(F)F)c1)c1nc2cccnc2n1-c1ccc(Cl)cn1 (stereo not drawn) [Example I-9] | 80 to 100% | 100% | 80% | – | – | – | 100% | – | – | mortality at 100 ppm [6]: 100%; mortality at 500 g/ha ([11]; 500 g/ha): 90%; mortality at 20 ppm [7]: 100%
6 | CC(NC(=O)c1cc(OC(F)(F)F)cc(C2CC2)c1)c1nc2cccnc2n1-c1ccc(Cl)cn1 (stereo not drawn) [Example I-13] | – | – | 90% | – | – | – | – | – | 80% | –
7 | C[C@H](NC(=O)c1cc(C(F)F)n(C)n1)c1nc2cccnc2n1-c1ccc(C#N)cn1 [Example I-17] | – | – | – | – | – | – | – | – | 100% | –
8 | CC(NC(=O)c1cc(C(F)(F)F)cc(C(F)(F)F)c1)c1nc2cccnc2n1-c1ccc(C(=O)N(C)C)cn1 (stereo not drawn) [Example I-26, 6-(2-{1-[3,5-bis(trifluoromethyl)benzamido]ethyl}-3H-imidazo[4,5-b]pyridin-3-yl)-N,N-dimethylnicotinamide] | – | – | – | 80 to 100% | 100% | – | – | 90% | – | –
9 | CC(NC(=O)c1cc(C(F)(F)F)cc(C(F)(F)F)c1)c1nc2cccnc2n1-c1ccc(C#N)cn1 (stereo not drawn) [Example I-35] | 80 to 100% | 100% | – | 80 to 100% | – | 80 to 100% | 100% | 100% | – | mortality at 4 mg/m2 [1]: 80 to 100%; mortality at 20 mg/m2 [13]: 80 to 100%
10 | CC(NC(=O)c1cc(OC(F)F)cc(OC(F)F)c1)c1nc2cccnc2n1-c1ccc(C#N)cn1 (stereo not drawn) [Example I-40] | 80 to 100% | 100% | – | 80 to 100% | 90% | 80 to 100% | 100% | – | – | mortality at 4 mg/m2 [1]: 80 to 100%
